Tests used:
Format in all cases: in vivo, Sprague-Dawley rats
[1] = tested on: cerebral cortex and hippocampus CA1/CA3 nerve cells; experiment: Nissl staining of brain tissue after KA injection; conditions: pretreatment; three days after KA 15 mg/kg i.p.; p<0.05 vs KA group
Procedure: (§1) Continuing from Example 3, the experimental animals in each group were sacrificed three days after intraperitoneal injection of KA (15 mg/kg), and the brain tissues were taken out for sectioning and other relevant experimental analysis.

[2] = tested on: CA1/CA3 degenerative cells in the cerebral cortex and hippocampus; experiment: Fluoro-Jade B (FJB) staining of brain tissue after KA injection; conditions: pretreatment; three days after KA 15 mg/kg i.p.; p<0.05 vs KA group
Procedure: as §1
This phenomenon can also be reduced by the pretreatment with the birch sap extract and betulin (p<0.05; FIGS. 4A and 4B).

[3] = tested on: KA-induced seizures; experiment: kainic acid (KA)-induced epilepsy model in animals, epileptic behavior by Racine scale; conditions: for Death: dead/total rats; for Seizure %: share of rats with seizures; for Seizure stage: then KA 15 mg/kg i.p., Racine scale within 4 hours
Procedure: Male Sprague-Dawley rats (SD rat, 150-200 g) were purchased from BioLASCO (Taiwan) and bred in Fu Jen Laboratory Animal Center. All animal experiments were approved by the IACUC of Fu Jen Catholic University. According to the 3R principles, all experiments were performed to minimize animal suffering and use the minimum number of animals necessary to produce reliable results.
The antiepileptic effect of the birch sap extract was evaluated using kainic acid (KA)-induced epilepsy model in animals. KA is an analogue of glutamate, and injection of KA into rats will increase the release of glutamate and overactivate glutamate receptors, resulting in progressive limbic seizures in rats. This phenomenon leads to increased calcium ions in nerve cells, oxidative stress, and loss of mitochondrial function, resulting in the death of nerve cells in many areas of the brain, especially in the cerebral cortex and hippocampus. In addition, KA-induced neuronal cell death is related to glial cell activation and inflammatory response caused by inflammatory molecules, such as interleukin-1β (IL-1β), interleukin-6 (IL-6), tumor necrosis factor-α (TNF-α), high mobility group Box 1 (HMGB1), interleukin 1 receptor 1 (IL-1R1), and Toll-like receptor-4 (TLR-4).
Epileptic behavioral expressions were analyzed within 4 hours after intraperitoneal injection of KA in rats.
Sprague-Dawley rats were divided into the following groups according to the administration of different test substances: • 1. Negative control group: normal saline • 2. KA group: 15 mg/kg/i.p./single dose of kainic acid (KA) • 3. Low-dose group of birch sap extract: 6 mg/kg of birch sap extract • 4. High-dose group of birch sap extract: 10 mg/kg of birch sap extract • 5. High-dose group of antiepileptic drug: 100 mg/kg of carbamazepine (CBZ) • 6. Antiepileptic pharmaceutical combination group: 6 mg/kg of birch sap extract and 50 mg/kg of CBZ • 7. Low-dose group of antiepileptic drug: 50 mg/kg of CBZ
The control group, birch sap extract groups, antiepileptic drug groups, and antiepileptic pharmaceutical combination group were fed with normal saline, birch sap extract and/or CBZ through feeding tubes at regular intervals every day. One week later, except for the negative control group, rats in each group were intraperitoneally injected with KA (15 mg/kg/i.p./single dose), and the dose of KA injection was based on the previous study. The epileptic behavior of rats was analyzed according to Racine scale (1972) within 4 hours after intraperitoneal injection of KA.

SMILES | number of neurocytes in cerebral cortex and hippocampus CA1/CA3 (Nissl staining) [1] | number of CA1/CA3 degenerative cells in the cerebral cortex and hippocampus (FJB staining) [2] | Death ([3]; CBZ 50 mg/kg + KA) | Latency to first seizure ([3]; CBZ 50 mg/kg + KA, mean ± SEM) | Seizure % ([3]; CBZ 50 mg/kg + KA) | Seizure stage ([3]; CBZ 50 mg/kg oral daily for one week, mean ± SEM) | Latency to first seizure ([3]; CBZ 100 mg/kg + KA) | Death ([3]; CBZ 100 mg/kg + KA) | Seizure % ([3]; CBZ 100 mg/kg + KA) | Seizure stage ([3]; CBZ 100 mg/kg oral daily for one week, mean ± SEM) | time and severity of seizures compared with the KA group ([3]; low-dose group of antiepileptic drug, CBZ 50 mg/kg)
C=C(C)[C@@H]1CC[C@]2(CO)CC[C@]3(C)[C@H](CC[C@@H]4[C@@]5(C)CC[C@H](O)C(C)(C)[C@@H]5CC[C@]43C)[C@@H]12 [betulin] | reduce the decrease in the number of neurocytes | reduced | – | – | – | – | – | – | – | – | –
NC(=O)N1c2ccccc2C=Cc2ccccc21 [CBZ, carbamazepine] | – | – | 0/3 | 89 ± 17 min | 66% | 3.6 ± 0.3 | 140 min | 1/11 | 10% | 0.9 ± 0.5 | not statistically different

Reference: patent publication US20250049871A1, “PHARMACEUTICAL COMBINATION FOR TREATING OR PREVENTING EPILEPSY AND THE USE THEREOF” (priority 2023, published 2025)
